Tests used:
[1] = molecular target: T1, PIM2 serine/threonine kinase (Homo sapiens, UniProt Q9P1W9); experiment: PIM2 serine/threonine kinase inhibitory effect; format: biochemical; conditions: PIM2 serine/threonine kinase activity; ATP 2 μM; 30° C., 30 minutes
T1 construct: purchased Carna Bioscience, Inc
Procedure: (§1) Each test substance was prepared to 10 mM with dimethylsulfoxide (DMSO), and further diluted with DMSO so as to have concentrations of 1000, 300, 100, 30, 10, 3, 1, 0.3, 0.1, 0.03, 0.01, and 0.001 μM. Moreover, each dilution was further diluted 33.3-fold with an assay buffer to prepare a test substance solution. The composition of the assay buffer was 50 mM HEPES (pH 7.0), 0.02% NaN3, 0.01% Bovine Serum Albumin, 0.1 mM Orthovanadate, 1 mM Dithiothreitol, and 5 mM MgCl2.
(§2) 5 μL of each test substance solution was added to 384-well plates (n=2), and then 2.5 μL of a substrate solution (substrate 3-biotin (Cisbio Bioassays SAS), final concentration in the reaction solution: 0.5 μM) and 2.5 μL of an ATP solution (in the cases of PIM1, 2, 3, the final concentrations in the reaction solutions were 40, 2, and 10 μM, respectively) were added, 5 μL of each of PIM1, 2, 3 serine/threonine kinase solutions (Carna Bioscience, Inc., the final concentrations in the reaction solutions were 0.15, 1.6, and 0.25 μg/ml, respectively) was finally added, and the mixture was reacted at 30° C. for 30 minutes. The test substance concentrations in the reaction solutions are 10000, 3000, 1000, 300, 100, 30, 10, 3, 1, 0.3, 0.1, and 0.01 nM.
(§3) Thereafter, 15 μL of each detection solution (62.5 nM Streptavidin-XL665 (Cisbio Bioassays SAS), […] STK antibody-Cryptate (Cisbio Bioassays SAS), 50 mM HEPES (pH 7.0), 0.8 M KF, 0.1% Bovine Serum Albumin, 20 mM ethylenediaminetetraacetic acid) was added to each well. After stirring, the mixture was reacted at 30° C. for 1 hour. Absorbance (OD620, OD665) at 620 and 665 nm was measured with a microplate reader (SpectraMax M5e, Molecular Devices, LLC).
(§4) Non-linear regression analysis was performed by an SAS system (SAS Institute Inc.) using the ratio (OD665/OD620) of the measured absorbance to calculate a test substance concentration (IC50) that inhibits PIM1 serine/threonine kinase activity by 50%.
(§5) For the compounds with the following Example numbers, in addition to the above PIM1 serine/threonine kinase activity (IC50), test substance concentrations (IC50) that inhibit PIM2 serine/threonine kinase activity and PIM3 serine/threonine kinase activity by 50% were calculated.

[2] = molecular target: T2, PIM3 serine/threonine kinase (Homo sapiens, UniProt Q86V86); experiment: PIM3 serine/threonine kinase inhibitory effect; format: biochemical; conditions: PIM3 serine/threonine kinase activity; ATP 10 μM; 30° C., 30 minutes
T2 construct: purchased Carna Bioscience, Inc
Procedure: as §1, §2, §3, §4, §5

T1 sequence (Q9P1W9 whole entry): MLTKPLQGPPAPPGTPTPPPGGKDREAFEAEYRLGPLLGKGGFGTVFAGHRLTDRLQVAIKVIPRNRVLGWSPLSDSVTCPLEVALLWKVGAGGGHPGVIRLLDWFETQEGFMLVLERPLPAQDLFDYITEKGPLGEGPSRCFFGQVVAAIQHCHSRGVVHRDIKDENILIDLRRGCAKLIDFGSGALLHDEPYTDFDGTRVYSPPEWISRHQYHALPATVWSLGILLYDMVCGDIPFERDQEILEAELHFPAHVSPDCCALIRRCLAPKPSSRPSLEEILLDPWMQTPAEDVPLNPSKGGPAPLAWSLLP

With `C[C@H](Nc1cc(-c2n[nH]c(=O)o2)cc(F)c1C(F)(F)F)C1CCNCC1.Cl` [Example 75, 5-[3-fluoro-5-{[(1S)-1-(piperidin-4-yl)ethyl]amino}-4-(trifluoromethyl)phenyl]-1,3,4-oxadiazol-2(3H)-one hydrochloride] the IC50 [1] was 2.3 nM and the IC50 [2] was 10 nM.
